Results on 13 compounds are retold here after PubChem BioAssay AID324 (DTP/NCI, 2004).

Several values for one entry are separate records, joined by “and”; a condition that tells them apart may be missing. Identical values can stand only once. Toxic doses and inconclusive results are not listed.

The experiment relates to CD2F1 mice, AMSA-resistant P388 leukemia ip, median survival T/C. Put plainly: NCI In Vivo Anticancer Drug Screen. Data for tumor model P388 Leukemia resistant to AMSA; NSC 249992 (intraperitoneal) in CD2F1 (CDF1) mice. Conditions: endpoint: median survival time, higher = longer survival. How it is done: The antitumor activity of compounds was measured in mice bearing transplantable tumors. Survival or tumor size were measured and the results are expressed as the measurement made in the treated group (T) divided by the measurement made in the vehicle treated control group (C). The tumor model used in this assay is P388 Leukemia resistant to AMSA; NSC 249992 (intraperitoneal) in CD2F1 (CDF1) mice

Where [1] appears, read: dose: 0.13 mg/kg/injection, schedule: Q04DX003 (ip), vehicle: water.
Setting [2] is: dose: 0.21 mg/kg/injection, schedule: Q04DX003 (ip), vehicle: water.
Setting [3] is: dose: 0.36 mg/kg/injection, schedule: Q04DX003 (ip), vehicle: water.
Setting [4] is: dose: 0.6 mg/kg/injection, schedule: Q04DX003 (ip), vehicle: water.

As to `O=C1c2ccccc2C(=O)c2c(NCCNCCO)ccc(NCCNCCO)c21`, the T/C (dose: 13.0 mg/kg/injection, schedule: Q04DX003 (ip), vehicle: saline) is 103 % of control; the T/C (dose: 21.6 mg/kg/injection, schedule: Q04DX003 (ip), vehicle: saline) was 103 % of control; the T/C (dose: 36.0 mg/kg/injection, schedule: Q04DX003 (ip), vehicle: saline) was 103 % of control; the T/C (dose: 60.0 mg/kg/injection, schedule: Q04DX003 (ip), vehicle: saline) is 108 % of control; the T/C (dose: 100.0 mg/kg/injection, schedule: Q04DX003 (ip), vehicle: saline) is 113 % of control.

On to `COc1cccc2c1C(=O)c1c(O)c3c(c(O)c1C2=O)C[C@@](O)(/C(C)=N/NC(=O)c1ccccc1)C[C@@H]3OC1CC(N)C(O)C(C)O1` (stereo partly drawn), for which the T/C by setting is: (dose: 1.94 mg/kg/injection, schedule: Q04DX003 (ip), vehicle: water) 109 % of control; (dose: 3.24 mg/kg/injection, schedule: Q04DX003 (ip), vehicle: water) 117 % of control; (dose: 5.4 mg/kg/injection, schedule: Q04DX003 (ip), vehicle: water) 123 % of control; (dose: 9.0 mg/kg/injection, schedule: Q04DX003 (ip), vehicle: water) 123 % of control; (dose: 15.0 mg/kg/injection, schedule: Q04DX003 (ip), vehicle: water) 115 % of control.

For `N[C@@H](Cc1ccc(N(CCCl)CCCl)cc1)C(=O)O`, the T/C by setting is: (dose: 1.62 mg/kg/injection, schedule: Q04DX003 (ip), vehicle: saline) 208 % of control; (dose: 1.94 mg/kg/injection, schedule: Q04DX002 (ip), vehicle: saline) 211 % of control and 212 % of control; (dose: 2.7 mg/kg/injection, schedule: Q04DX003 (ip), vehicle: saline) 211 % of control; (dose: 3.24 mg/kg/injection, schedule: Q04DX002 (ip), vehicle: saline) 259 % of control and 262 % of control; (dose: 4.5 mg/kg/injection, schedule: Q04DX003 (ip), vehicle: saline) 391 % of control; (dose: 5.4 mg/kg/injection, schedule: Q04DX002 (ip), vehicle: saline) 416 % of control. Besides, the T/C was 391 % of control (dose: 7.5 mg/kg/injection, schedule: Q04DX003 (ip), vehicle: saline); 416 % of control (dose: 9.0 mg/kg/injection, schedule: Q04DX002 (ip), vehicle: saline); 391 % of control (dose: 12.5 mg/kg/injection, schedule: Q04DX003 (ip), vehicle: saline); 120 % of control and 86 % of control (dose: 15.0 mg/kg/injection, schedule: Q04DX002 (ip), vehicle: saline).

Take `CC(=O)C1(O)Cc2c(O)c3c(c(O)c2C(OC2CC(N)C(O)C(C)O2)C1)C(=O)c1ccccc1C3=O` (stereo not drawn): the T/C under setting [1] is 111 % of control, the T/C under setting [2] was 122 % of control, the T/C under setting [3] was 124 % of control and the T/C under setting [4] was 105 % of control.

As for `CO[C@H]1Nc2c(ccc(C)c2O)C(=O)N2C=C(/C=C/C(N)=O)C[C@@H]12`, the T/C reads like this: (dose: 0.08 mg/kg/injection, schedule: Q04DX003 (ip), vehicle: saline + alcohol) 104 % of control; (dose: 0.13 mg/kg/injection, schedule: Q04DX003 (ip), vehicle: saline + alcohol) 123 % of control.

As to `COc1cc([C@@H]2c3cc4c(cc3[C@@H](OC3OC5COC(C)OC5C(O)C3O)[C@H]3COC(=O)[C@H]23)OCO4)cc(OC)c1O` (stereo partly drawn), the T/C was 124 % of control (dose: 6.24 mg/kg/injection, schedule: Q04DX003 (ip), vehicle: water); 118 % of control (dose: 17.3 mg/kg/injection, schedule: Q04DX003 (ip), vehicle: water); 103 % of control (dose: 18.0 mg/kg/injection, schedule: Q04DX003 (ip), vehicle: Klucel (hydroxypropylcellulose) (HPC)); 91 % of control (dose: 27.0 mg/kg/injection, schedule: Q04DX003 (ip), vehicle: Klucel (hydroxypropylcellulose) (HPC)); 167 % of control (dose: 28.8 mg/kg/injection, schedule: Q04DX003 (ip), vehicle: clinical formulation); 162 % of control (dose: 28.8 mg/kg/injection, schedule: Q04DX003 (ip), vehicle: water). Besides, the T/C reads like this: (dose: 48.0 mg/kg/injection, schedule: Q04DX003 (ip), vehicle: water) 108 % of control; (dose: 60.0 mg/kg/injection, schedule: Q04DX003 (ip), vehicle: Klucel (hydroxypropylcellulose) (HPC)) 87 % of control.

Consider `CCN(CC)CCNc1ccc(CO)c2sc3ccccc3c(=O)c12`, for which the T/C is, setting by setting: (dose: 10.36 mg/kg/injection, schedule: Q01DX005 (ip), vehicle: water) 106 % of control; (dose: 17.28 mg/kg/injection, schedule: Q01DX005 (ip), vehicle: water) 117 % of control; (dose: 28.8 mg/kg/injection, schedule: Q01DX005 (ip), vehicle: water) 98 % of control; (dose: 48.0 mg/kg/injection, schedule: Q01DX005 (ip), vehicle: water) 97 % of control; (dose: 80.0 mg/kg/injection, schedule: Q01DX005 (ip), vehicle: water) 87 % of control.

In the case of `CCC1(O)CC(OC2CC(N(C)C)C(OC3CC4OC5CC(=O)C(C)OC5OC4C(C)O3)C(C)O2)c2c(cc3c(c2O)C(=O)c2c(O)ccc(O)c2C3=O)C1C(=O)OC` (stereo not drawn), the T/C (dose: 0.64 mg/kg/injection, schedule: Q04DX003 (ip), vehicle: water) was 108 % of control; the T/C (dose: 0.86 mg/kg/injection, schedule: Q04DX003 (ip), vehicle: water) was 112 % of control; the T/C (dose: 1.08 mg/kg/injection, schedule: Q04DX003 (ip), vehicle: water) was 107 % of control; the T/C (dose: 1.44 mg/kg/injection, schedule: Q04DX003 (ip), vehicle: water) was 115 % of control; the T/C (dose: 1.8 mg/kg/injection, schedule: Q04DX003 (ip), vehicle: water) is 117 % of control; the T/C (dose: 2.4 mg/kg/injection, schedule: Q04DX003 (ip), vehicle: water) was 124 % of control. Further, the T/C (dose: 5.0 mg/kg/injection, schedule: Q04DX003 (ip), vehicle: water) is 113 % of control.

On to `COc1cccc2c1C(=O)c1c(O)c3c(c(O)c1C2=O)C[C@@](O)(C(C)=O)C[C@@H]3OC1CC(N(C)C)C(O)C(C)O1` (stereo partly drawn), for which the T/C by setting is: (dose: 3.6 mg/kg/injection, schedule: Q04DX003 (ip), vehicle: water) 150 % of control; (dose: 6.0 mg/kg/injection, schedule: Q04DX003 (ip), vehicle: water) 168 % of control; (dose: 10.0 mg/kg/injection, schedule: Q04DX003 (ip), vehicle: water) 166 % of control; (dose: 16.7 mg/kg/injection, schedule: Q04DX003 (ip), vehicle: water) 107 % of control.

As to `CC[C@](O)(C(=O)O)c1cc2n(c(=O)c1CO)Cc1cc3ccccc3nc1-2`, the T/C is, setting by setting: (dose: 18.0 mg/kg/injection, schedule: Q04DX003 (ip), vehicle: saline) 192 % of control; (dose: 30.0 mg/kg/injection, schedule: Q04DX003 (ip), vehicle: saline) 193 % of control; (dose: 50.0 mg/kg/injection, schedule: Q04DX003 (ip), vehicle: saline) 240 % of control.

On to `CC(=O)[C@]1(O)Cc2c(O)c3c(c(O)c2[C@@H](OC2CC(N)C(O)C(C)O2)C1)C(=O)c1c(O)cccc1C3=O` (stereo partly drawn), for which the T/C is 122 % of control under setting [1]; 115 % of control under setting [2]; 109 % of control under setting [3]; 124 % of control under setting [4]; 97 % of control (dose: 1.0 mg/kg/injection, schedule: Q04DX003 (ip), vehicle: water).

For the compound `COc1cccc2c1C(=O)c1c(O)c3c(c(O)c1C2=O)C[C@@](O)(C(C)=O)C[C@@H]3OC1CC(NCc2ccccc2)C(O)C(C)O1` (stereo partly drawn), the T/C runs as follows: (dose: 6.48 mg/kg/injection, schedule: Q04DX003 (ip), vehicle: water) 113 % of control; (dose: 10.8 mg/kg/injection, schedule: Q04DX003 (ip), vehicle: water) 117 % of control; (dose: 18.0 mg/kg/injection, schedule: Q04DX003 (ip), vehicle: water) 104 % of control.

Take `c1ccc2c(NCCCCCCNc3c4ccccc4nc4ccccc34)c3ccccc3nc2c1`: the T/C (dose: 1.94 mg/kg/injection, schedule: Q01DX009 (ip), vehicle: other) was 123 % of control; the T/C (dose: 2.59 mg/kg/injection, schedule: Q04DX003 (ip), vehicle: other) is 123 % of control; the T/C (dose: 4.32 mg/kg/injection, schedule: Q04DX003 (ip), vehicle: other) is 110 % of control; the T/C (dose: 7.2 mg/kg/injection, schedule: Q04DX003 (ip), vehicle: other) was 94 % of control; the T/C (dose: 7.78 mg/kg/injection, schedule: Q01DX001 (ip), vehicle: water) was 93 % of control; the T/C (dose: 10.0 mg/kg/injection, schedule: Q01DX009 (ip), vehicle: Klucel (hydroxypropylcellulose) (HPC)) is 150 % of control. In addition, the T/C (dose: 13.0 mg/kg/injection, schedule: Q01DX001 (ip), vehicle: water) was 98 % of control.
